What all share (format): in vivo
In one assay the test system is ryegrass. Kind of assay: Pre-emergence application in ryegrass under greenhouse conditions (Example 6). Particulars: 16 days after application. The source says:
(§1) The following testing protocol was employed to evaluate the pre-emergence application of herbicides and herbicide combinations as described in the following examples unless otherwise specified. The weed species to be treated were planted in 3.5 inch pots containing a 50:50 silt loam:redi-earth soil mix. Immediately after such planting (i.e., pre-emergence), herbicide was applied to the soil mix at the specified application rate using a track sprayer with a flat even nozzle type, 9501E nozzle size, and spray pressure of 165 kPa. All herbicides were incorporated into the germination zone with 0.25 inch of overhead irrigation three days after spraying. Additional sub-irrigation was provided to achieve adequate soil moisture for germination. After the incorporation of the herbicide(s), the pots were only overhead irrigated as needed. Throughout the test period, temperature was maintained from about 20° C. to about 30° C. and relative humidity was maintained at about 30%. The plants were rated visually and percentage of weed control was determined for each treatment at 19 days after herbicide application.
Pre-emergence application of several herbicides and herbicide combinations was evaluated in ryegrass under greenhouse conditions. The plants were rated visually and percentage of weed control was determined at 16 days after herbicide application. The herbicides and herbicide combinations evaluated are listed in Table 6-A below together with the corresponding percent control data. The data represent an average value (n=6).
The results of the analysis are reported below in Table 6-B (dicamba+metribuzin), Table 6-C(acetochlor+metribuzin), and Table 6-D (acetochlor+dicamba).

Another assay has as its system sicklepod. Kind of assay: Pre-emergence application in sicklepod under greenhouse conditions (Example 4). Particulars: 18 days after application.
Text: as §1
Pre-emergence application of several herbicides and herbicide combinations was evaluated in sicklepod under greenhouse conditions. The plants were rated visually and percentage of weed control was determined at 18 days after herbicide application. The herbicides and herbicide combinations evaluated are listed in Table 4-A below together with the corresponding percent control data. The data represent an average value (n=6).
The results of the analysis are reported below in Table 4-B (dicamba+metribuzin), Table 4-C(acetochlor+metribuzin), and Table 4-D (acetochlor+dicamba).

The test system of a further assay is Palmer amaranth. Kind of assay: Pre-emergence application in Palmer amaranth under greenhouse conditions (Example 1). The note with it: 18 days after application.
Text: as §1
Pre-emergence application of several herbicides and herbicide combinations was evaluated in Palmer amaranth under greenhouse conditions. The plants were rated visually and percentage of weed control was determined at 18 days after herbicide application. The herbicides and herbicide combinations evaluated are listed in Table 1-A below together with the corresponding percent control data. The data represent an average value (n=6).
The results of the analysis are reported below in Table 1-B (dicamba+metribuzin), Table 1-C(acetochlor+metribuzin), and Table 1-D (acetochlor+dicamba).

A further assay deals with wild Proso millet. Kind of assay: Pre-emergence application in wild Proso millet under greenhouse conditions (Example 3). Particulars: 16 days after application.
Text: as §1
Pre-emergence application of several herbicides and herbicide combinations was evaluated in wild Proso millet under greenhouse conditions. The plants were rated visually and percentage of weed control was determined at 16 days after herbicide application. The herbicides and herbicide combinations evaluated are listed in Table 3-A below together with the corresponding percent control data. The data represent an average value (n=6).
The results of the analysis are reported below in Table 3-B (dicamba+metribuzin), Table 3-C (acetochlor+metribuzin), and Table 3-D (acetochlor+dicamba).

For the next assay, the system named is morning glory. Kind of assay: Pre-emergence application in morning glory under greenhouse conditions (Example 2). The note with it: 18 days after application.
Text: as §1
Pre-emergence application of several herbicides and herbicide combinations was evaluated in morning glory under greenhouse conditions. The plants were rated visually and percentage of weed control was determined at 18 days after herbicide application. The herbicides and herbicide combinations evaluated are listed in Table 2-A below together with the corresponding percent control data. The data represent an average value (n=6).
The results of the analysis are reported below in Table 2-B (dicamba+metribuzin), Table 2-C(acetochlor+metribuzin), and Table 2-D (acetochlor+dicamba).

In a further assay the test system is Johnsongrass. Kind of assay: Pre-emergence application in Johnsongrass under greenhouse conditions (Example 5). The note with it: 16 days after application.
Text: as §1
Pre-emergence application of several herbicides and herbicide combinations was evaluated in Johnsongrass under greenhouse conditions. The plants were rated visually and percentage of weed control was determined at 16 days after herbicide application. The herbicides and herbicide combinations evaluated are listed in Table 5-A below together with the corresponding percent control data. The data represent an average value (n=6).
The results of the analysis are reported below in Table 5-B (dicamba+metribuzin), Table 5-C(acetochlor+metribuzin), and Table 5-D (acetochlor+dicamba).

For `CCOCN(C(=O)CCl)c1c(C)cccc1CC` [Acetochlor, 2-chloro-N-(ethoxymethyl)-6′-ethyl-o-acetotoluidide], the “PERCENT CONTROL” value in the assay on ryegrass (840 g/ha) is on record as 82.5%; in the assay with ryegrass (1260 g/ha), 86.7%; with sicklepod (840 g/ha), 4.0%; in the assay with sicklepod (1260 g/ha), 5.8%; with Palmer amaranth (840 g/ha), 65.8%; in the assay on Palmer amaranth (1260 g/ha), 90.8%. Besides, the “PERCENT CONTROL” value worked out at 74.2% in the assay on wild Proso millet (840 g/ha); 84.0% in the assay with wild Proso millet (1260 g/ha); 5.0% in the assay on morning glory (840 g/ha); 7.5% in the assay on morning glory (1260 g/ha); 94.8% in the assay on Johnsongrass (840 g/ha); 100.0% in the assay with Johnsongrass (1260 g/ha).
For the compound `COc1c(Cl)ccc(Cl)c1C(=O)O` [Dicamba, 3,6-dichloro-2-methoxy benzoic acid], the “PERCENT CONTROL” value in the assay on ryegrass (280 g/ha) stood at 31.7%; in the assay with ryegrass (560 g/ha), 56.7%; in the assay on sicklepod (280 g/ha), 42.0%; in the assay on sicklepod (560 g/ha), 84.0%; in the assay on Palmer amaranth (280 g/ha), 88.3%; in the assay on Palmer amaranth (560 g/ha), 84.2%. For the same compound, the “PERCENT CONTROL” value in the assay on wild Proso millet (280 g/ha) is 43.3%; with wild Proso millet (560 g/ha) it was 74.2%; in the assay on morning glory (280 g/ha), 38.0%; with morning glory (560 g/ha), 81.7%; in the assay on Johnsongrass (280 g/ha) it was 71.7%; in the assay with Johnsongrass (560 g/ha) it was 83.3%.
Take `CSc1nnc(C(C)(C)C)c(=O)n1N` [Metribuzin, 4-amino-6-(1,1-dimethylethyl)-3-(methylthio)-1,2,4-triazin-5(4H)-one]: the “PERCENT CONTROL” value in the assay on ryegrass (420 g/ha) came to 33.3%; in the assay on ryegrass (840 g/ha), 66.7%; with sicklepod (420 g/ha), 56.7%; in the assay on sicklepod (840 g/ha) it was 100.0%; in the assay on Palmer amaranth (420 g/ha) it was 100.0%; with Palmer amaranth (840 g/ha), 100.0%. Moreover, the “PERCENT CONTROL” value in the assay on wild Proso millet (420 g/ha) came to 100.0%; with wild Proso millet (840 g/ha), 100.0%; in the assay on morning glory (420 g/ha), 16.7%; in the assay on morning glory (840 g/ha), 63.8%; with Johnsongrass (420 g/ha), 84.2%; with Johnsongrass (840 g/ha) it was 100.0%.
